{
  "source": "paper PMC8862293",
  "about": "“Quercetin mitigates rheumatoid arthritis by inhibiting adenosine deaminase in rats” (Molecular Medicine, 2022)",
  "molecular_target": "T1, adenosine deaminase (ADA) (Rattus norvegicus, UniProt Q920P6)",
  "T1 construct": "native enzyme partially purified from rat joint tissue",
  "T1 sequence (Q920P6 2-352)": "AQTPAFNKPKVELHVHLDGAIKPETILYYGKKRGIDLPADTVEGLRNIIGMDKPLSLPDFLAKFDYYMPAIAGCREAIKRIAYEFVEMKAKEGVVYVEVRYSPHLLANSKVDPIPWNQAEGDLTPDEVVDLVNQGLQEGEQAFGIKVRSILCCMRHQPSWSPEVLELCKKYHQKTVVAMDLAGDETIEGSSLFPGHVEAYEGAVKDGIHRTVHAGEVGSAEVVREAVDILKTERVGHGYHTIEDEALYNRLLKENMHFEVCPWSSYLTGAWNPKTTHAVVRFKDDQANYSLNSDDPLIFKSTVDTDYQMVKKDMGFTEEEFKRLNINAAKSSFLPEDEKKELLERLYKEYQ",
  "assay": "Colorimetric (Giusti) ADA activity assay on partially purified rat joint enzyme; Lineweaver-Burk kinetics",
  "format": "biochemical",
  "data": [
    {"smiles": "O=c1c(O)c(-c2ccc(O)c(O)c2)oc2cc(O)cc(O)c12", "note": "[quercetin]", "values": [
      {"measurement": "IC50", "result": 170, "unit": "µM"}
    ]}
  ]
}
